The values below come from publication PMC3063489 (Molecular and biochemical parasitology, 2011).

Read-outs that look alike come from different tables or passages of the source.

The target in one test is GFP-SmDAT (Schistosoma mansoni, UniProt E9LD23). Format: cell-based. To be noted: COS-7 cells; for uptake of tritiated substrate by SmDAT: 100 nM of each substrate, normalized to dopamine uptake (Fig. 2A).
The next test relates to Schistosoma. The following applies: cited from earlier work.
The next test deals with hDAT (Homo sapiens, UniProt Q01959). To be noted: COS-7 cells.
Sequence of hDAT (Q01959 whole entry): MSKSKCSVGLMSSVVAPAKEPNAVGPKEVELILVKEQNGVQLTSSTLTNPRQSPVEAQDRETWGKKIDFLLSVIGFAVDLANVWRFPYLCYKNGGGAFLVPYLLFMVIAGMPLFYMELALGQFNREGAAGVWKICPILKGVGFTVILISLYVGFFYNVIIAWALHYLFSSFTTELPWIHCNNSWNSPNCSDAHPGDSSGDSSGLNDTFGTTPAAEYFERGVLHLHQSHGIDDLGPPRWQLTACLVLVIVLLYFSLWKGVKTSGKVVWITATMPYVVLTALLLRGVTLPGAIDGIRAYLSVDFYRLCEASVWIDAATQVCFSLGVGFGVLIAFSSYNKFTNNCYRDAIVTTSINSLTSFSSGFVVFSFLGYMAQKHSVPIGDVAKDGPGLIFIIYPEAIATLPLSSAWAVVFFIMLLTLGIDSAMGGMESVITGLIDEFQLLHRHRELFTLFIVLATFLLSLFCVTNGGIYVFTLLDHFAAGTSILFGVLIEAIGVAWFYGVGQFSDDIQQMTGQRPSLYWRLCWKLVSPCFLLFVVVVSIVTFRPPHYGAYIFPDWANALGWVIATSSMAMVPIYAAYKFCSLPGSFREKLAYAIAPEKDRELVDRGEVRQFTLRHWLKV
Test [1] has as its system Schistosoma mansoni adult worms. To be noted: adult worms treated with dopamine; cited from earlier work.

On to `NCCc1c[nH]c2ccc(O)cc12` [serotonin], for which the “uptake of tritiated substrate by SmDAT” value on GFP-SmDAT was “could not detect any detectable levels”.

Consider `O=C(C1CCCCC1)N1CC(=O)N2CCc3ccccc3C2C1` (stereo not shown) [praziquantel], for which the “activity on immature worms and eggs” value in the test with Schistosoma is reported as “not active”. As for `NCCc1ccc(O)c(O)c1` [dopamine], the “Vmax of dopamine uptake, GFP-SmDAT” value at GFP-SmDAT was 0.16 ± 0.04 pmol/well/min; at GFP-SmDAT (unit as printed in legend of Fig. 2), 0.16 ± 0.04 pmol/min. Moreover, at hDAT, the “Vmax of dopamine uptake, hDAT” value is 0.9 ± 0.2 pmol/well/min. In addition, the “effect on adult worms” value in test [1] was “relaxation of muscles and a lengthening of the worms”. Regarding `NC[C@H](O)c1ccc(O)c(O)c1` [Norepinephrine], the “uptake of tritiated substrate by SmDAT” value at GFP-SmDAT was “low but significant levels”.
